Experimental data as given in patent publication US8026278B2, “Inhibitors of pyruvate kinase as therapeutic agents for cancer” (priority 2005, dated 2011).
Structures can show the parent of a compound that is named as a salt.

Legend:
[1] = biological target: T1, Pyruvate kinase isolated from rabbit muscle (Oryctolagus cuniculus, UniProt P11974); test: Inhibition of pyruvate kinase (indirect assay quantifying ADP production); format: biochemical
T1 construct: Pyruvate kinase isolated from rabbit muscle; purchased Sigma-Aldrich; host or cells: rabbit muscle (tissue-derived enzyme)
Description: The compounds E-3-chlorophosphoenolpyruvate ditriethyl-ammonium salt (ECPDAT), Z-3-chlorophosphoenolpyruvate tritriethyl-ammonium salt (CPTP), phosphoenol-3-bromo-pyruvic acid mono-cyclohexyl ammonium salt (PBPA), 2-bromooxoethylphosphonic acid mono-cyclohexyl-ammonium salt (BOEPA) and 3-bromopyruvic acid (BrPyA) were tested for their efficiency at inhibiting pyruvate kinase. Pyruvate kinase isolated from rabbit muscle was purchased from Sigma-Aldrich. Pyruvate kinase was assayed indirectly by quantifying ADP production formed in the reaction ATP+pyruvate to ADP+phosphoenolpyruvate. Inhibitors were added to the reaction mixture immediately before the reaction was started by the addition of ATP.

[2] = test system: MCF7 (breast) cancer cell line; test: MTT assay, inhibition of cell proliferation, MCF7; format: cell-based; details: MCF7, 72 hours
Description: (§1) The compounds of the invention were tested for their inhibition potential of cell proliferation. MCF7 (breast) and SF268 (glioma) cancer cell lines were incubated with different concentrations of the compounds and their viability was assessed using an MTT (3-(4,5-dimethylthiazol-2-yl)-2,5-diphenyltetrazolium bromide) assay. The MTT assay is well known in the art (see for example Slater et al., Biochim. Biophys. Acta 77 (1963) 383). The cells were incubated with a given inhibitor for 72 hours and assayed.

[3] = test system: SF268 (glioma) cancer cell line; test: MTT assay, inhibition of cell proliferation, SF268; format: cell-based; details: SF268, 72 hours
Description: as §1

T1 sequence (P11974 whole entry): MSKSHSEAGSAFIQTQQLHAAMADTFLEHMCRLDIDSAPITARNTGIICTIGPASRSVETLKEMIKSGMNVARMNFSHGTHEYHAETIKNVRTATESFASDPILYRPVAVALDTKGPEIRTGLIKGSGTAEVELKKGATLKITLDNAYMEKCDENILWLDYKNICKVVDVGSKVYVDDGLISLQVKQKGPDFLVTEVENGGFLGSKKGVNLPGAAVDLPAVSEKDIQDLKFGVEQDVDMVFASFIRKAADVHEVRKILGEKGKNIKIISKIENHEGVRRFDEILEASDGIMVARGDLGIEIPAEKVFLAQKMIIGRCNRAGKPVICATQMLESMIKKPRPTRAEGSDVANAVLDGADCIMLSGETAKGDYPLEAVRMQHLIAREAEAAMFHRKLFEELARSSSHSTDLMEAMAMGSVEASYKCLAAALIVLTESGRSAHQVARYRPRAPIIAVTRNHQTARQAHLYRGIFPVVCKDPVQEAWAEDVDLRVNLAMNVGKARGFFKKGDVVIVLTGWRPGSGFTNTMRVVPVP

## O=C(O)C(=CBr)OP(=O)(O)O [PBPA, phosphoenol-3-bromo-pyruvic acid mono-cyclohexyl ammonium salt]
[1]
  Inhibition of pyruvate kinase compared with BrPyA: inhibited pyruvate kinase at lower concentrations than BrPyA
[1]; Concentration 0.1 μM, read-out: % Inhibition
  inhibition at 0.1 µM: 0%
[1]; Concentration 1 μM, read-out: % Inhibition
  inhibition at 1 µM: 13.8%
[1]; Concentration 10 μM, read-out: % Inhibition
  inhibition at 10 µM: 28.6%
[2]
  Inhibition of cell proliferation: inhibited cell proliferation
[2]; 10 uM
  % (A-Blank relative to control): 94.23%
  A-Blank (Average-Blank) O.D. at 570 nm: 0.7632 O.D.
  Average O.D. reading at 570 nm: 0.846 O.D.
[2]; 25 uM
  % (A-Blank relative to control): 97.16%
  A-Blank (Average-Blank) O.D. at 570 nm: 0.787 O.D.
  Average O.D. reading at 570 nm: 0.8698 O.D.
[2]; 50 uM
  % (A-Blank relative to control): 97.901%
  A-Blank (Average-Blank) O.D. at 570 nm: 0.793 O.D.
  Average O.D. reading at 570 nm: 0.8758 O.D.
[2]; 75 uM
  % (A-Blank relative to control): 98.827%
  A-Blank (Average-Blank) O.D. at 570 nm: 0.8005 O.D.
  Average O.D. reading at 570 nm: 0.8833 O.D.
[2]; 100 uM
  % (A-Blank relative to control): 95.71%
  A-Blank (Average-Blank) O.D. at 570 nm: 0.7753 O.D.
  Average O.D. reading at 570 nm: 0.858 O.D.
[2]; 200 uM
  % (A-Blank relative to control): 93.333%
  A-Blank (Average-Blank) O.D. at 570 nm: 0.756 O.D.
  Average O.D. reading at 570 nm: 0.8388 O.D.
[2]; 300 uM
  % (A-Blank relative to control): 84.9074%
  A-Blank (Average-Blank) O.D. at 570 nm: 0.6877 O.D.
  Average O.D. reading at 570 nm: 0.7705 O.D.
[2]; 500 uM
  % (A-Blank relative to control): 75.31%
  A-Blank (Average-Blank) O.D. at 570 nm: 0.61 O.D.
  Average O.D. reading at 570 nm: 0.6927 O.D.
[3]
  Inhibition of cell proliferation: inhibited cell proliferation
[3]; 10 uM
  % (A-Blank relative to control): 100.1%
  A-Blank (Average-Blank) O.D. at 570 nm: 0.6935 O.D.
  Average O.D. reading at 570 nm: 0.7798 O.D.
[3]; 25 uM
  % (A-Blank relative to control): 102.02%
  A-Blank (Average-Blank) O.D. at 570 nm: 0.7068 O.D.
  Average O.D. reading at 570 nm: 0.793 O.D.
[3]; 50 uM
  % (A-Blank relative to control): 99.567%
  A-Blank (Average-Blank) O.D. at 570 nm: 0.6898 O.D.
  Average O.D. reading at 570 nm: 0.776 O.D.
[3]; 75 uM
  % (A-Blank relative to control): 100.11%
  A-Blank (Average-Blank) O.D. at 570 nm: 0.6935 O.D.
  Average O.D. reading at 570 nm: 0.7798 O.D.
[3]; 100 uM
  % (A-Blank relative to control): 95.453%
  A-Blank (Average-Blank) O.D. at 570 nm: 0.6613 O.D.
  Average O.D. reading at 570 nm: 0.7475 O.D.
[3]; 200 uM
  % (A-Blank relative to control): 90.978%
  A-Blank (Average-Blank) O.D. at 570 nm: 0.6303 O.D.
  Average O.D. reading at 570 nm: 0.7165 O.D.
[3]; 300 uM
  % (A-Blank relative to control): 79.7546%
  A-Blank (Average-Blank) O.D. at 570 nm: 0.5525 O.D.
  Average O.D. reading at 570 nm: 0.6388 O.D.
[3]; 500 uM
  % (A-Blank relative to control): 74.49%
  A-Blank (Average-Blank) O.D. at 570 nm: 0.516 O.D.
  Average O.D. reading at 570 nm: 0.6022 O.D.

## O=C(O)C(=O)CBr [BrPyA, 3-bromopyruvic acid, reference compound]
[1]; Concentration 0.1 mM
  inhibition at 100 µM: 0%
[1]; Concentration 1 mM
  inhibition at 1000 µM: 0%
[1]; Concentration 10 mM
  inhibition at 10000 µM: 10.9%
[1]; Concentration 100 mM
  inhibition at 100000 µM: 57.8%
